Values of other authors as cited in publication PMC5425492 (Clinical Pharmacokinetics, 2016).

In the case of insulin degludec, the “Within-subject variability in glucose-lowering effect” value is listed as 20%.
In the case of insulin detemir, the “Within-subject variability in glucose-lowering effect” value is given as 27%.
